Patent US11033640B2, “Enteric CT contrast material based on low-z atoms” (priority 2013, dated 2021)

Tested on: rabbit

## [Mg+2].[OH-].[OH-] [Mg(OH)2, magnesium hydroxide]
Rabbit model, high-concentration suspension diluted to 400 HU
  Toxicity or discomfort: without observing obvious toxicity or discomfort
rabbit, dual energy CT
  Differentiation from iodinated intravascular contrast, two-material decomposition: without interfering signal from the intravascular iodinated contrast material
